According to patent US20100162416A1, “Multi-stage stem cell carcinogenesis” (StemLifeLine, Inc., priority 2008, published 2010):
“Also recorded” adds a separate entry of the source.

How the values were obtained:
Format in all cases: cell-based, human
[1] = test system: selected clones (05, 07, 11) and parental hESC; assay: Drug resistance profile: proliferation rate by BrdU incorporation in the presence of chemotherapeutic reagents
Description: Drug resistance profiles of selected clones were determined for the common classes of chemotherapeutic reagents. Proliferation rate of the clones and parental hESC was measured in the presence of multiple concentrations of 10 different drugs using BrdU incorporation assay. Each drug has been tested in at least three independent experiments, each condition being done in triplicate. The approximate half maximal inhibitory concentration (IC50) was determined for each of the drugs tested. IC50 represents the concentration of a drug that is required for 50% inhibition in vitro.
Response of the selected clones to the following chemotherapeutic reagents was examined. The chemotherapeutic agents were chosen for their wide-spread use and variety with respect to their modes of action: 5-fluorouracil (5-FU), doxorubicin (Doxo), irinotecan (SN-38), taxol, etoposide (VP-16), carmustine (BCNU), methotrexate (MTX), cytarabine (AraC), temozolomide (MTIC) and chlorambucil (CLB). […] Proliferation rate was measured by BrdU incorporation at the end of the drug treatment. All samples were made in triplicates in each of the three independent experiments performed.

clones 07-B1 and 11-B19 = assay: Drug resistance of BCNU-selected high-resistance clones; settings: clones selected by increasing concentrations of BCNU; data not shown
Description: Two clones, 07 and 11 were exposed to increasing concentrations of BCNU. The surviving cells were cloned and a number of high-resistance clones two of which, 07-B1 and 11-B19 were isolated. Their drug resistance to BCNU and MTIC was tested.

[2] = test system: isogenic cloned cell lines derived from one hESC line; assay: Resistance of the panel of isogenic cloned cell lines to common chemotherapeutic agents; settings: panel of isogenic cloned cell lines with CSC phenotype
Source text: Using one hESC line, a panel of isogenic cloned cell lines has already been generated and banked. […] High resolution karyotype (G-banding), proliferation rate (BrdU incorporation and doubling time), growth factor dependence and expression of CSC/SC markers such as Oct-4, Nanog, CD133, ABCG2, ABCG5 etc) have been examined and the stability of the expressed phenotypes was confirmed.

[3] = test system: clones 05, 07, 11, isogenic hESC control and isogenic cancer lines TMEC02, TMEC03; assay: Salinomycin dose response measured by BrdU incorporation; settings: clones 05 and 07 compared with clone 11, isogenic hESC control

Question: O=c1[nH]cc(F)c(=O)[nH]1 [5-FU, 5-fluorouracil] was tested. Which “resistance of clone 07” value ([1]; clone 07 compared with clone MEC-11) did it give?
Answer: more resistant

Question: With O=NN(CCCl)C(=O)NCCCl [BCNU, carmustine] as the compound, how does the “resistance of clones 07-B1 and 11-B19 relative to parental clones” value (clones 07-B1 and 11-B19) read?
Answer: higher resistance than the parental clones

Question: What about the “resistance of transformed cell lines to the agent” value (“resistance … to the agent” below) [2] of the same compound?
Answer: increased resistance

Question: With COc1cccc2c1C(=O)c1c(O)c3c(c(O)c1C2=O)C[C@@](O)(C(=O)CO)C[C@@H]3O[C@H]1C[C@H](N)[C@H](O)[C@H](C)O1 [doxorubicin] as the compound, how does the “resistance … to the agent” value [2] read?
Answer: increased resistance

Question: For CO[C@@]12[C@H](COC(N)=O)C3=C(C(=O)C(C)=C(N)C3=O)N1C[C@@H]1N[C@@H]12 [mitomycin C], which “effect on proliferation (positive control)” value ([1]; all cell lines, BrdU incorporation at end of drug treatment) is on record?
Answer: induced growth arrest in all cell lines

Question: With CC(=O)O[C@H]1C(=O)[C@@]2(C)[C@H]([C@H](OC(=O)c3ccccc3)[C@]3(O)C[C@H](OC(=O)[C@H](O)[C@@H](NC(=O)c4ccccc4)c4ccccc4)C(C)=C1C3(C)C)[C@]1(OC(C)=O)CO[C@@H]1C[C@@H]2O [paclitaxel] as the compound, how does the “resistance … to the agent” value [2] read?
Answer: increased resistance

Question: Which “effect of drug on proliferation of clones 05 and 07” value [3] does the source give for CC[C@@H](C(=O)[C@@H](C)[C@@H](O)[C@H](C)[C@@H]1O[C@@H]([C@@H](CC)C(=O)O)CC[C@@H]1C)[C@H]1O[C@]2(C=C[C@@H](O)[C@]3(CC[C@@](C)([C@H]4CC[C@](O)(CC)[C@H](C)O4)O3)O2)[C@H](C)C[C@@H]1C [salinomycin] here?
Answer: most significantly affected; also recorded: significantly more affected
